Experimental data published in paper PMC7144330, “2-Thiopyrimidine/chalcone hybrids: design, synthesis, ADMET prediction, and anticancer evaluation as STAT3/STAT5a inhibitors” (Journal of Enzyme Inhibition and Medicinal Chemistry, 2020).
Like-named read-outs stand apart in the source and are kept apart here.

Key:
K-562 = assay: MTT cytotoxic assay, leukaemia K-562 cell line; assay type: cell-based; conditions: Homo sapiens, K562, read-out: (IC50 μM)±SD K-562
Method: (§1) To investigate cytotoxic activity of the final target compounds 9a–r, MTT assay was performed. Three different cell lines were used, leukaemia (K-562), breast (MCF-7) and colon (HT-29) cell lines. Cisplatin and erlotinib were the reference drugs used in this study.
(§2) All target compounds 9a–r were screened against three different cancer cell lines, leukaemia (K-562), breast (MCF-7), and colon (HT-29). MTT assay was used. Both cisplatin and erlotinib were used as the reference drugs. Cytotoxicity results are recorded in Table 1.

MCF-7 = assay: MTT cytotoxic assay, breast MCF-7 cell line; assay type: cell-based, human; conditions: Homo sapiens, MCF7, read-out: (IC50 μM)±SD MCF-7
Method: as §1, §2

HT-29 = assay: MTT cytotoxic assay, colon HT-29 cell line; assay type: cell-based; conditions: Homo sapiens, read-out: (IC50 μM)±SD HT-29
Method: as §1, §2

STAT3 [1] = target: T1, STAT3 (Homo sapiens, UniProt P40763); assay: TransAM STAT3 activation assay on nuclear extracts of treated cells; assay type: cell-based; conditions: 24 h, read-out: Inhibition IC50 (µM) STAT3
T1 construct: endogenous in cells; host or cells: K-562 and MCF-7 cells (nuclear extracts)
T1 sequence (P40763 whole entry): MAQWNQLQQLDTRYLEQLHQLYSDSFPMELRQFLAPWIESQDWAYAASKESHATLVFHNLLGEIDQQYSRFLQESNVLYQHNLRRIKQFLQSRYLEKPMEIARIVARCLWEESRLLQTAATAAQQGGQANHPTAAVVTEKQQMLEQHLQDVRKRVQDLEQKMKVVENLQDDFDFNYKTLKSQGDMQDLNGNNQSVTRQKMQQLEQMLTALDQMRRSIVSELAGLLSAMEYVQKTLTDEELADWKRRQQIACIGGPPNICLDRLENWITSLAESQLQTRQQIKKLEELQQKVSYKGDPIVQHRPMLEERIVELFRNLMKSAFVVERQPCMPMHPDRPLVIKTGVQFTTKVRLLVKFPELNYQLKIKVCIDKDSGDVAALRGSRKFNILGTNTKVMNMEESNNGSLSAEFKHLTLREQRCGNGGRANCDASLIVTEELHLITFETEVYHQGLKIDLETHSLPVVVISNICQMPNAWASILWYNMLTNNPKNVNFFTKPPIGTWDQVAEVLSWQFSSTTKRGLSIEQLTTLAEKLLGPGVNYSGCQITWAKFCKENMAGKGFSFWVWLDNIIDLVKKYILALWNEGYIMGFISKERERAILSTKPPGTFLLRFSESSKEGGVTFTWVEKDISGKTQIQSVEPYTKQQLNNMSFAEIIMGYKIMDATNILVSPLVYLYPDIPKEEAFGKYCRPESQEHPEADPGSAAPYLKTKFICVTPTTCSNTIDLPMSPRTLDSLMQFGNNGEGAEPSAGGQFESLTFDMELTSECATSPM
Method: (§3) Both K-562 and MCF-7 cell lines were seeded overnight in plates, then 10 µM of test compounds (9a and 9r for MCF-7 cells; 9d, 9f, and 9n for K-562 cells) or reference drug pacritinib was added for 24 h. A nuclear extract kit was used to extract nuclear fractions from treated cells using the manufacture’s procedure. STAT3 and STAT5a activations were analysed using the collected nuclear extracts (20 µg) through TransAM STAT3 and STAT5a activation assay guided by the manufacture’s protocol. The obtained results were expressed in the form of mean ± SD. Each experiment was done in triplicate.
(§4) Pacritinib, an inhibitor for both STAT3 and STAT5a[49] was used in this study as a reference drug.

STAT5a = target: T2, STAT5a (Homo sapiens, UniProt P42229); assay: TransAM STAT5a activation assay on nuclear extracts of treated cells; assay type: cell-based; conditions: 24 h, read-out: Inhibition IC50 (µM) STAT5a
T2 construct: endogenous in cells; host or cells: K-562 and MCF-7 cells (nuclear extracts)
T2 sequence (P42229 1-794): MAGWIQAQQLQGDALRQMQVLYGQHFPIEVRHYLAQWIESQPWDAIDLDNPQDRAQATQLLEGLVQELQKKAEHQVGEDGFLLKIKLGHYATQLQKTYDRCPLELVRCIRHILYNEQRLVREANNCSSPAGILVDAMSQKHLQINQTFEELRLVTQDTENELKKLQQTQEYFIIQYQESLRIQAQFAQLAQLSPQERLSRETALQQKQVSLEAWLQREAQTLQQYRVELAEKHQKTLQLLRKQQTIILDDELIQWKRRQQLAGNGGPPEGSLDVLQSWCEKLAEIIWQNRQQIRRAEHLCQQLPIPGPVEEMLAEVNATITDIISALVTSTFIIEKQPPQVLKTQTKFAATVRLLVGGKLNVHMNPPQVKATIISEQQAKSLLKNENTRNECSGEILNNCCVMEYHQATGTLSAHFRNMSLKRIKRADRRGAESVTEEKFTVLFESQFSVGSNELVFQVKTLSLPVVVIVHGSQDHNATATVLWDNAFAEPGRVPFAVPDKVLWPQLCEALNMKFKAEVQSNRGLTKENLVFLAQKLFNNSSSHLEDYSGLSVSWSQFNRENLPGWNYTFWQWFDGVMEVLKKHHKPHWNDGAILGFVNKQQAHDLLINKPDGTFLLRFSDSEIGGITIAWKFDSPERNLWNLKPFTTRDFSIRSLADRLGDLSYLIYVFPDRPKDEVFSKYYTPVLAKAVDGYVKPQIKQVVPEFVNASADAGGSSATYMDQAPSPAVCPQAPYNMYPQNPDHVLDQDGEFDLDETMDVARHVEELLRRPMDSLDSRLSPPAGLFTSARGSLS
Method: as §3, §4

in vitro = conditions: human
human leukaemia cells = system: human leukaemia cells; parameters: method as in earlier work; conditions: read-out: CC50, cytotoxic activity; cited from earlier work
STAT3 [2] = system: STAT3; parameters: method as in PMID 20067773; conditions: breast cancer cells; read-out: EC50, inhibition of STAT3 function; cited from earlier work
STAT3 [3] = system: STAT3; parameters: method as in PMID 20067773; conditions: myeloma cancer cells; read-out: EC50, inhibition of STAT3 function; cited from earlier work

Compound | IC50 (K-562) | IC50 (MCF-7) | IC50 (HT-29) | IC50 (STAT3 [1]; K562 cells) | IC50 (STAT5a; K562 cells) | melting point | IC50 (in vitro) | IC50 (STAT3 [1]; MCF7 cells) | IC50 (STAT5a; MCF7 cells) | CC50 (human leukaemia cells) | EC50 (STAT3 [2]) | EC50 (STAT3 [3])
COc1ccc(/C=C/C(=O)c2ccc(NC(=O)CSc3nc(-c4ccc(OC)cc4)cc(-c4ccc([N+](=O)[O-])cc4)n3)cc2)cc1 [Compound 9d, (ZE)-2-[4-(4-Methoxyphenyl)-6-(4-nitrophenyl)pyrimidin-2-ylthio]-N-{4-[3-(4-methoxyphenyl)acryloyl]phenyl}acetamide] | 0.77 ± 0.03 µM | 14.2 ± 0.74 µM | 25.9 ± 1.67 µM | 160 ± 4.59 µM | 116 ± 4.13 µM | 183 to 185 °C | 29.2 to 40.1 µM | – | – | – | – | –
COc1cc(/C=C/C(=O)c2ccc(NC(=O)CSc3nc(-c4ccc(Cl)cc4)cc(-c4ccc(OCCCl)cc4)n3)cc2)cc(OC)c1OC [Compound 9r] | 10.7 ± 0.77 µM | 1.37 ± 0.07 µM | 4.74 ± 0.27 µM | – | – | 221 to 223 °C | 29.2 to 40.1 µM | 149 ± 3.81 µM | 63.2 ± 1.57 µM | – | – | –
COc1ccc(/C=C/C(=O)c2ccc(NC(=O)CSc3nc(-c4ccc(C)cc4)cc(-c4ccc(OC)cc4)n3)cc2)cc1 [Compound 9a, (ZE)-2-[4-(4-Methoxyphenyl)-6-p-tolylpyrimidin-2-ylthio]-N-{4-[3-(4 methoxyphenyl)acryloyl]phenyl}acetamide] | 18.4 ± 0.76 µM | 3.56 ± 0.14 µM | 2.2 ± 0.04 µM | – | – | 226 to 228 °C | 17.1 µM | 243 ± 9.24 µM | 83.8 ± 3.28 µM | – | – | –
COc1ccc(/C=C/C(=O)c2ccc(NC(=O)CSc3nc(-c4ccc(Cl)cc4)cc(-c4ccc([N+](=O)[O-])cc4)n3)cc2)cc1OC [Compound 9n, (ZE)-2-[4-(4-Chlorophenyl)-6-(4-nitrophenyl)pyrimidin-2-ylthio]-N-{4-[3-(3,4-dimethoxyphenyl)acryloyl]phenyl}acetamide] | 1.05 ± 0.02 µM | 17.4 ± 0.75 µM | 2.1 ± 0.06 µM | 113 ± 3.22 µM | 50.7 ± 1.26 µM | 147 to 149 °C | 29.2 to 40.1 µM | – | – | – | – | –
Cc1cccc(Nc2ccccc2C(=O)Nc2ccc(C(=O)/C=C/c3ccc(N(C)C)cc3)cc2)c1C [dimethylamino-derivative of compound X] | – | – | – | – | – | – | – | – | – | 2060 nM | – | –
Cc1cccc(Nc2ccccc2C(=O)Nc2ccc(C(=O)/C=C/c3ccc(Cl)cc3)cc2)c1C [chloro-derivative of compound X] | – | – | – | – | – | – | – | – | – | 2170 nM | – | –
C1=C/COCc2cc(ccc2OCCN2CCCC2)Nc2nccc(n2)-c2cccc(c2)COC/1 [Pacritinib, reference compound] | – | – | – | 65.5 ± 2.55 µM | 69.8 ± 1.82 µM | – | – | 79.5 ± 2.17 µM | 54.4 ± 1.09 µM | – | – | –
COc1ccc(-c2cc(-c3ccc([N+](=O)[O-])cc3)nc(SCC(=O)Nc3ccc(C(=O)/C=C/c4cc(OC)c(OC)c(OC)c4)cc3)n2)cc1 [Compound 9f, (ZE)-2-[4-(4-Methoxyphenyl)-6-(4-nitrophenyl)pyrimidin-2-ylthio]-N-{4-[3-(3,4,5-trimethoxyphenyl)acryloyl]phenyl}acetamide] | 1.37 ± 0.03 µM | 5.77 ± 0.22 µM | 9.41 ± 0.43 µM | 245 ± 11.1 µM | 77.7 ± 2.91 µM | 254 to 256 °C | 29.2 to 40.1 µM | – | – | – | – | –
